Assay [1] concerns the target T1, phosphorylated ERBB2 (pERBB2) (Homo sapiens, UniProt P04626).
T1 construct: endogenous in cells; host or cells: BT-474
Put plainly: Detection of phosphorylated ERBB2 (pERBB2) by ELISA in BT-474 cells. The assay is classed as cell-based. Particulars: four hour incubation. On the procedure:
BT-474 cells were seeded into a 96-well at 2.0*10^4 cells/100 μl/well. Compounds were dissolved and serially diluted in DMSO. The compounds were then were added, mixed, and incubated for four hours at 37° C., 5% CO2. Compounds were added using four-fold dilutions at final concentrations ranging from 10 μM to 0.01 nM. Following the four hour incubation with compounds, cell lysates were prepared. Plates were centrifuged for 5 μmin at 3000 RPM, and supernatant was removed from each well. Cells were washed 3 times by resuspension in 150 μl PBS, followed by centrifugation and removal of the supernatant, as above. 100 μl of cell lysis buffer (Boston BioProducts, cat #BP-115D) supplied with 1× complete ULTRA cocktail inhibitor (Thermo ScientificTM, cat #78443) was then added to the washed cells. Cells were incubated with lysis buffer for 1 hour at 4° C., and then stored at -80° C. Enzyme-linked immunosorbent assays (ELISA) were performed to measure phosphorylated ERBB2 levels. […] The next day, plates were washed with PBS+0.05% Tween20 (PBST). 150 μl of 5% BSA blocking solution was added for 1 hour at room temperature, with shaking. Plates were washed with PBST. Cell lysates were thawed and 100 μl of lysate was added to the ELISA plate. The plates were incubated for 2 hours at room temperature, with shaking. ELISA plates were then washed with PBST and 100 μl of an HRP-labeled detection antibody that binds phosphorylated tyrosine (R&D Systems, cat #841913) was added to each well. Plates were incubated for 1 hour at room temperature, with shaking. Plates were then washed with PBST, and 100 μl TMB substrate solution (R&D Systems, cat #DY999) was added. Plate were incubated in the dark for 20 minutes at room temperature. 50 μl of Stop solution (R&D Systems, cat #DY994) (50 μl) was added to each well and mixed. Optical density at 450 nm was read on an EnSpire plate reader (Perkin Elmer). The remaining kinase activity by calculated using the following formula: % Relative activity=100×([…]). The low and high control values (“LC” and “HC”) were generated from lysate from wells without cells or with cells treated with 0.1% DMSO, respectively.

Assay [2] deals with T2, phosphorylated EGFR (pEGFR) (Homo sapiens, UniProt P00533).
T2 construct: performed to measure phosphorylated EGFR levels using A431 cells (10% FBS); endogenous in cells; host or cells: A431
T2 sequence (P00533 25-1210): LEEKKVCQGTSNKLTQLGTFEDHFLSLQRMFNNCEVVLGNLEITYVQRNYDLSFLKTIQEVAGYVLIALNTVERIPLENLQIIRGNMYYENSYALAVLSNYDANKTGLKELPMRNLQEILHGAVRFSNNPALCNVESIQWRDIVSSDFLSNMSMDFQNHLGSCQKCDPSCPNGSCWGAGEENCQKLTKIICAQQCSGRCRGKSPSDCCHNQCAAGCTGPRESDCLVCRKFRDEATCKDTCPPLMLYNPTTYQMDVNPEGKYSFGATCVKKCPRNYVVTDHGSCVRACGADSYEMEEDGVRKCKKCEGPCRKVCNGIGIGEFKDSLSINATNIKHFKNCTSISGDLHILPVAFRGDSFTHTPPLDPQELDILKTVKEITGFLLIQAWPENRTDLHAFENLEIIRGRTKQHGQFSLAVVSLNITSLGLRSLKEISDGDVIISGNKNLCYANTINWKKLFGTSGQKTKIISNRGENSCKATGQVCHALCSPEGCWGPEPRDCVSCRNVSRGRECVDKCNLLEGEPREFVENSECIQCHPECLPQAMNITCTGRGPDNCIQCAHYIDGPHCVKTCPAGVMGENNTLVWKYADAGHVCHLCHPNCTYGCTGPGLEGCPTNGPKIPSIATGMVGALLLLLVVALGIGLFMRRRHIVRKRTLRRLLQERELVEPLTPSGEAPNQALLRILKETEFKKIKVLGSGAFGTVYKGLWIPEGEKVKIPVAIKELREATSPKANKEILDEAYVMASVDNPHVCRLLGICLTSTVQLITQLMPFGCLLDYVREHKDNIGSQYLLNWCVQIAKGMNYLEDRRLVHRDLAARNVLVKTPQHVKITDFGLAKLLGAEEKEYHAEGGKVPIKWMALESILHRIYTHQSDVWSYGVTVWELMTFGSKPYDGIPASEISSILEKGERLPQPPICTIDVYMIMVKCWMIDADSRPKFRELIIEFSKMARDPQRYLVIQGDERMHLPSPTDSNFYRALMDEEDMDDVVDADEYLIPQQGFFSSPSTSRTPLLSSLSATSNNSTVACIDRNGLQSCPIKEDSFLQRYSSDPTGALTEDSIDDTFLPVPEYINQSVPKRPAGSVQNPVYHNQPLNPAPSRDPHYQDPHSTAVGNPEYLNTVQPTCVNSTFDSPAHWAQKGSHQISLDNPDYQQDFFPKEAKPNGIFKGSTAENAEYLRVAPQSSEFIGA
Put plainly: Detection of phosphorylated EGFR (pEGFR) by AlphaLISA in EGF-stimulated A431 cells. The format is cell-based. Particulars: A431 cells (10% FBS), 4 hours incubation, EGF 30 ng/mL for 10 minutes. As to the method: Enzyme-linked immunosorbent assays (ELISA) were performed to measure phosphorylated EGFR levels using A431 cells (10% FBS). A431 (1.0*10^4 cells/40 μl/well) cells were seeded in 384 well. Compounds were dissolved in DMSO, serially diluted in DMSO and then were added, mixed, and incubated for 4 hours at 37° C., 5% C02. Following the 4-hours incubation, cells were stimulated for 10 minutes with EGF (Invitrogen, cat #PHG0311) at a final concentration of 30 ng/mL in the incubator. The media was aspirated and cells were lysed in 10 μL lysis buffer with protease and phosphatase inhibitors (PerkinElmer, cat #ALSU-PEGFR-A50K). The plates were placed on a shaker for 5 μminutes and then incubated for 30 min at 4° C. for complete lysis. The lysate was transferred to an Optiplate (Perkin Elmer, cat #6007290).
Acceptor mix (PerkinElmer, cat #ALSU-PEGFR-A50K) was prepared just before use and 5 μL was dispensed to all the wells, followed by a 1.5-2 h incubation at room temperature in dark. The donor mix (PerkinElmer, cat #ALSU-PEGFR-A50K) was prepared under low light conditions prior to use and 5 μl of donor mix was added to all the wells under subdued lighting or green filters. The plates were placed on a shaker for 5 μmin, sealed, and incubated overnight at room temperature in dark. Plates were read on the Envision (PerkinElmer) using standard AlphaLISA settings.
The percentage of inhibition on EGFR phosphorylation was calculated following equation: % Inhibition=100×(LumHC−LumSample)/(LumHC−LumLC). The low and high controls (LC/HC) are generated from lysate from wells with cells treated with DMSO or […] Staurosporine (BioAustralis, cat #BIA-S1086), […]. IC50 values were calculated by fitting the Curve using XLfit (v5.3.1.3), equation 201: Y=Bottom+(Top−Bottom)/(1+10^((Log IC50−X)*HillSlope)).
A general note: Bead proximity is the source of the signal in Alpha formats.

T1 sequence (P04626 23-1255): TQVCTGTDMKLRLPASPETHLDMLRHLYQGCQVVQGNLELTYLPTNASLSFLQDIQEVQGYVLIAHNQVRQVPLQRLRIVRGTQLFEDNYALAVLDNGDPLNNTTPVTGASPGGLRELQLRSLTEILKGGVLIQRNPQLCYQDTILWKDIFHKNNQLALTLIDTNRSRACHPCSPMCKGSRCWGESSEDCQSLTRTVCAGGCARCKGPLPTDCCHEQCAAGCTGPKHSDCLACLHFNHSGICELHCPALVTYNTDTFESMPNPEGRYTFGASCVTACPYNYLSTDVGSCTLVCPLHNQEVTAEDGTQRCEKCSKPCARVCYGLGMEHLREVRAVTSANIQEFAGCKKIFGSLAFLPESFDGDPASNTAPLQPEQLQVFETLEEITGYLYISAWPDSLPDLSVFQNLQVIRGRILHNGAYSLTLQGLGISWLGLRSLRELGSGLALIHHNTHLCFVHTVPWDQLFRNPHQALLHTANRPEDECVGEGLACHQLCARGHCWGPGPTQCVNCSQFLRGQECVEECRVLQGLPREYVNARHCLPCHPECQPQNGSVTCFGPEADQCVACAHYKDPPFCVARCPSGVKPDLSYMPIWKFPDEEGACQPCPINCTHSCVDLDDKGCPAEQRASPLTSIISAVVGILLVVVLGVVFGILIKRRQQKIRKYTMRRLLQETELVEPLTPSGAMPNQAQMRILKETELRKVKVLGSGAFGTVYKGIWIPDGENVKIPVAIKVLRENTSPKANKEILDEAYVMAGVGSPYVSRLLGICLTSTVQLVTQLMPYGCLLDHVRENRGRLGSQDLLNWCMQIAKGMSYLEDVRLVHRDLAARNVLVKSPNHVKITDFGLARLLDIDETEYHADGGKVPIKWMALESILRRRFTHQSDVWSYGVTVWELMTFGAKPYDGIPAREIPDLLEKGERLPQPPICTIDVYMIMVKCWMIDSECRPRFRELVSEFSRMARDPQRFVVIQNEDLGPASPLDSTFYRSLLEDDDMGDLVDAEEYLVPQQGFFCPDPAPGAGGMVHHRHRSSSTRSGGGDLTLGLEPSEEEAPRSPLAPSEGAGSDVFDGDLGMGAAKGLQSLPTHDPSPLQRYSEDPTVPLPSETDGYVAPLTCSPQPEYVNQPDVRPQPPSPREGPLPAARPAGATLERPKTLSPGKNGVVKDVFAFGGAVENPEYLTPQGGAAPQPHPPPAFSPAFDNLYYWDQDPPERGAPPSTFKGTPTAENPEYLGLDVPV

In the case of `Cc1ccc(Oc2ccc(Nc3ncnc4cc5c(nc34)N3CCN(C)C[C@H]3CO5)cc2C)cn1` [Compound 73, (S)-3-methyl-N-(3-methyl-4-((6-methylpyridin-3-yl)oxy)phenyl)-1,2,3,4,4a,5-hexahydropyrazino[1,2-d]pyrimido[4′,5′:5,6]pyrido[3,2-b][1,4]oxazin-11-amine], the IC50 (in general, the concentration needed to halve the response being measured) in assay [1] was 198 nM; in assay [2], greater than 10000 nM.

Take `Cc1c(Oc2ccn3ncnc3c2)ccc(Nc2ncnc3cc4c(nc23)N2CCN(C)C[C@H]2CO4)c1F` [Compound 74, (S)—N-(4-([1,2,4]triazolo[1,5-a]pyridin-7-yloxy)-2-fluoro-3-methylphenyl)-3-methyl-1,2,3,4,4a,5-hexahydropyrazino[1,2-d]pyrimido[4′,5′:5,6]pyrido[3,2-b][1,4]oxazin-11-amine]: the IC50 was 98.1 nM in assay [1] and greater than 10000 nM in assay [2].

With `Cc1cc(Nc2ncnc3cc4c(nc23)N2CCN(C)C[C@H]2CO4)c(F)cc1Oc1ccn2ncnc2c1` [Compound 75, (S)—N-(4-([1,2,4]triazolo[1,5-a]pyridin-7-yloxy)-2-fluoro-5-methylphenyl)-3-methyl-1,2,3,4,4a,5-hexahydropyrazino[1,2-d]pyrimido[4′,5′:5,6]pyrido[3,2-b][1,4]oxazin-11-amine], the results for the 50% inhibitory concentration (IC50) in assay [1] and in assay [2] were 73.9 nM and greater than 10000 nM, respectively.

Consider `Cc1cc(Nc2ncnc3ccc4c(c23)OC[C@H]2CCCCN42)ccc1Oc1ccn2ncnc2c1` [Compound 86, (R)—N-(4-([1,2,4]triazolo[1,5-a]pyridin-7-yloxy)-3-methylphenyl)-6,6a,7,8,9,10-hexahydropyrido[1′,2′:4,5][1,4]oxazino[2,3-f]quinazolin-4-amine], for which the IC50 in assay [1] is 40.7 nM; in assay [2], greater than 10000 nM.

As to `Cc1cc(Nc2ncnc3ccc4c(c23)OC[C@H]2CCCN42)ccc1Oc1ccn2ncnc2c1` [Compound 87, (R)—N-(4-([1,2,4]triazolo[1,5-a]pyridin-7-yloxy)-3-methylphenyl)-6a,7,8,9-tetrahydro-6H-pyrrolo[1′,2′:4,5][1,4]oxazino[2,3-f]quinazolin-4-amine], the results for the IC50 in assay [1] and in assay [2] were 75.5 nM and greater than 10000 nM, respectively.

As for `Cc1c(Oc2ccn3ncnc3c2)ccc(Nc2ncnc3ccc4c(c23)OC[C@H]2COCCN42)c1F` [Compound 99, (R)—N-(4-([1,2,4]triazolo[1,5-a]pyridin-7-yloxy)-2-fluoro-3-methylphenyl)-6a,7,9,10-tetrahydro-6H-[1,4]oxazino[4′,3′:4,5][1,4]oxazino[2,3-f]quinazolin-4-amine], the half-maximal inhibitory concentration (IC50) in assay [1] is 211 nM; in assay [2], greater than 10000 nM.

For `Cc1cc(Nc2ncnc3ccc4c(c23)OC[C@H]2COCCN42)c(F)cc1Oc1ccn2ncnc2c1` [Compound 100, (R)—N-(4-([1,2,4]triazolo[1,5-a]pyridin-7-yloxy)-2-fluoro-5-methylphenyl)-6a,7,9,10-tetrahydro-6H-[1,4]oxazino[4′,3′:4,5][1,4]oxazino[2,3-f]quinazolin-4-amine], the figures for the IC50 in assay [1] and in assay [2] were 82.2 nM and greater than 10000 nM, respectively.

Consider `Fc1cc(Oc2ccn3ncnc3c2)ccc1Nc1ncnc2ccc3c(c12)OC[C@H]1COCCN31` [Compound 101, (R)—N-(4-([1,2,4]triazolo[1,5-a]pyridin-7-yloxy)-2-fluorophenyl)-6a,7,9,10-tetrahydro-6H-[1,4]oxazino[4′,3′:4,5][1,4]oxazino[2,3-f]quinazolin-4-amine], for which the IC50 in assay [1] was 503 nM; in assay [2], greater than 10000 nM.

As for `Cc1c(Oc2ccn3ncnc3c2)ccc(Nc2ncnc3cc4c(nc23)N2CCOC[C@H]2CO4)c1F` [Compound 102, (S)—N-(4-([1,2,4]triazolo[1,5-a]pyridin-7-yloxy)-2-fluoro-3-methylphenyl)-1,2,4a,5-tetrahydro-4H-[1,4]oxazino[4,3-d]pyrimido[4′,5′:5,6]pyrido[3,2-b][1,4]oxazin-11-amine], the IC50 is 257 nM in assay [1] and greater than 10000 nM in assay [2].

As to `Cc1cc(Nc2ncnc3cc4c(nc23)N2CCOC[C@H]2CO4)c(F)cc1Oc1ccn2ncnc2c1` [Compound 103, (S)—N-(4-([1,2,4]triazolo[1,5-a]pyridin-7-yloxy)-2-fluoro-5-methylphenyl)-1,2,4a,5-tetrahydro-4H-[1,4]oxazino[4,3-d]pyrimido[4′,5′:5,6]pyrido[3,2-b][1,4]oxazin-11-amine], the IC50 in assay [1] was 154 nM; in assay [2], greater than 10000 nM.

Turning to `Fc1cc(Oc2ccn3ncnc3c2)ccc1Nc1ncnc2cc3c(nc12)N1CCOC[C@H]1CO3` [Compound 104, (S)—N-(4-([1,2,4]triazolo[1,5-a]pyridin-7-yloxy)-2-fluorophenyl)-1,2,4a,5-tetrahydro-4H-[1,4]oxazino[4,3-d]pyrimido[4′,5′:5,6]pyrido[3,2-b][1,4]oxazin-11-amine], the IC50 in assay [1] was 495 nM; in assay [2] it was greater than 10000 nM.

Turning to `Cc1cc(Nc2ncnc3cc4c(c(F)c23)N2CCOC[C@H]2CO4)ccc1Oc1ccn2ncnc2c1` [Compound 105, (S)—N-(4-([1,2,4]triazolo[1,5-a]pyridin-7-yloxy)-3-methylphenyl)-12-fluoro-1,2,4a,5-tetrahydro-4H-[1,4]oxazino[4′,3′:4,5][1,4]oxazino[3,2-g]quinazolin-11-amine], the IC50 was 225 nM in assay [1] and greater than 10000 nM in assay [2].

`Cc1cc(Nc2ncnc3cnc4c(c23)OC[C@H]2COCCN42)ccc1Oc1ccn2ncnc2c1` [Compound 106, (R)—N-(4-([1,2,4]triazolo[1,5-a]pyridin-7-yloxy)-3-methylphenyl)-6a,7,9,10-tetrahydro-6H-[1,4]oxazino[4,3-d]pyrimido[5′,4′:4,5]pyrido[3,2-b][1,4]oxazin-4-amine]: the IC50 is 37.1 nM in assay [1] and greater than 10000 nM in assay [2].

On to `Cc1cc(Nc2ncnc3cc4c(nc23)N2CCOC[C@H]2CO4)ccc1Oc1ccc2c(c1)ncn2C` [Compound 107, (S)—N-(3-methyl-4-((1-methyl-1H-benzo[d]imidazol-5-yl)oxy)phenyl)-1,2,4a,5-tetrahydro-4H-[1,4]oxazino[4,3-d]pyrimido[4′,5′:5,6]pyrido[3,2-b][1,4]oxazin-11-amine], for which the half-maximal inhibitory concentration (IC50) in assay [1] is 78.2 nM; in assay [2], greater than 10000 nM.

On to `Cc1cc(Nc2ncnc3ccc4c(c23)OC[C@H]2COCCN42)ccc1Oc1ccc2c(c1)ncn2C` [Compound 108, (R)—N-(3-methyl-4-((1-methyl-1H-benzo[d]imidazol-5-yl)oxy)phenyl)-6a,7,9,10-tetrahydro-6H-[1,4]oxazino[4′,3′:4,5][1,4]oxazino[2,3-f]quinazolin-4-amine], for which the IC50 in assay [1] came to 57.2 nM; in assay [2], 9520 nM.

On to `COC(=O)N1CCN2c3ccc4ncnc(Nc5ccc(Oc6ccn7ncnc7c6)c(C)c5)c4c3OC[C@H]2C1` [Compound 110, methyl (R)-4-((4-([1,2,4]triazolo[1,5-a]pyridin-7-yloxy)-3-methylphenyl)amino)-6a,7,9,10-tetrahydropyrazino[1′,2′:4,5][1,4]oxazino[2,3-f]quinazoline-8(6H)-carboxylate], for which the results for the IC50 in assay [1] and in assay [2] were 74.7 nM and greater than 10000 nM, respectively.

The values above are taken from patent publication US20260078135A1, “POLYCYCLIC QUINAZOLINES FOR INHIBITION OF ERBB2” (Enliven Inc., priority 2022, published 2026).
